Patent US20250147039A1, “Compounds for complexation of rare earth elements and/or s-, p-, d- block metals, their coordination compounds, peptide conjugates, method of their preparation and use thereof” (USTAV ORGANICKE CHEMIE A BIOCHEMIE AV CR V.V.I., priority 2021, published 2025)

What was measured:
[1] = Formation of 1,5-cz-[M(Lig)] from Lig and M^III ions (metal dependent click-zip) (Charts 4, 5); format: physicochemical; settings: MOPS/NaOH buffer pH 7.0, TD728, TD827 in 50% i-PrOH; for conversion to 1,5-cz-[M(Lig)], Y^III: TD714 sum of two diastereoisomers
[2] = pH dependent formation of 1,5- and 1,4-cz-Lig isomers from Lig (pH dependent click-zip) (Chart 13); format: physicochemical
[3] = Alkali metal dependent formation of 1,5-cz-Lig and 1,4-cz-Lig isomers from Lig at pH 10.2 (Chart 14); format: physicochemical; settings: Borate/(M^I)2CO3 buffer pH 10.2
[4] = Formation of 1,5-cz-[Ln(Lig)] from Lig and Ln^III ions (metal dependent click-zip), MOPS/NaOH buffer pH 7.0, analytical HPLC (Charts 1, 2); settings: MOPS/NaOH buffer pH 7.0
[5] = A: 1 hour at 80° C., 0.1M HClO4 (pH ~1)
[6] = A: 1 hour at 80° C., 1.0M HClO4 (pH ~0)
[7] = A: 1 hour at 80° C., pH 2.2, 50 mM aq. buffer
[8] = A: 1 hour at 80° C., pH 3.0, 50 mM aq. buffer
[9] = A: 1 hour at 80° C., pH 3.8, 50 mM aq. buffer
[10] = A: 1 hour at 80° C., pH 4.6, 50 mM aq. buffer
[11] = A: 1 hour at 80° C., pH 5.4, 50 mM aq. buffer
[12] = A: 1 hour at 80° C., pH 6.2, 50 mM aq. buffer
[13] = A: 1 hour at 80° C., pH 7.0, 50 mM aq. buffer
[14] = A: 1 hour at 80° C., pH 8.6, 50 mM aq. buffer
[15] = A: 1 hour at 80° C., pH 9.4, 50 mM aq. buffer
[16] = A: 1 hour at 80° C., pH 10.2, 50 mM aq. buffer
[17] = B: 1 day at 80° C., 0.1M HClO4 (pH ~1)
[18] = B: 1 day at 80° C., 1.0M HClO4 (pH ~0)
[19] = B: 1 day at 80° C., pH 2.2, 50 mM aq. buffer
[20] = B: 1 day at 80° C., pH 3.0, 50 mM aq. buffer
[21] = B: 1 day at 80° C., pH 3.8, 50 mM aq. buffer
[22] = B: 1 day at 80° C., pH 4.6, 50 mM aq. buffer
[23] = B: 1 day at 80° C., pH 5.4, 50 mM aq. buffer
[24] = B: 1 day at 80° C., pH 6.2, 50 mM aq. buffer
[25] = B: 1 day at 80° C., pH 7.0, 50 mM aq. buffer
[26] = B: 1 day at 80° C., pH 8.6, 50 mM aq. buffer
[27] = B: 1 day at 80° C., pH 9.4, 50 mM aq. buffer
[28] = B: 1 day at 80° C., pH 10.2, 50 mM aq. buffer
[29] = B: 1 day at 80° C., visible analyte free precipitate

conversion to 1,5-cz-[M(Lig)], Sc^III ([1]; 1 week at 80° C.): 0%
conversion to 1,5-cz-[M(Lig)], Y^III ([1]; 1 week at 80° C.): 0%
conversion to 1,5-cz-[M(Lig)], Sc^III ([1]; 1 hour at 80° C.): 0%
conversion to 1,5-cz-[M(Lig)], Y^III ([1]; 1 hour at 80° C.): 0%
conversion to 1,4-cz-Lig isomer [2, 5]: 0%
conversion to 1,5-cz-Lig isomer [2, 5]: 13%
conversion to 1,4-cz-Lig isomer [2, 6]: 0%
conversion to 1,5-cz-Lig isomer [2, 6]: 13%
conversion to 1,4-cz-Lig isomer [2, 7]: 0%
conversion to 1,5-cz-Lig isomer [2, 7]: 13%
conversion to 1,4-cz-Lig isomer [2, 8]: 0%
conversion to 1,5-cz-Lig isomer [2, 8]: 10%
conversion to 1,4-cz-Lig isomer [2, 9]: 0%
conversion to 1,5-cz-Lig isomer [2, 9]: 3%
conversion to 1,4-cz-Lig isomer [2, 10]: 0%
conversion to 1,5-cz-Lig isomer [2, 10]: 1%
conversion to 1,4-cz-Lig isomer [2, 11]: 0%
conversion to 1,5-cz-Lig isomer [2, 11]: 1%
conversion to 1,4-cz-Lig isomer [2, 12]: 0%
conversion to 1,5-cz-Lig isomer [2, 12]: 0%
conversion to 1,4-cz-Lig isomer [2, 13]: 0%
conversion to 1,5-cz-Lig isomer [2, 13]: 0%
conversion to 1,4-cz-Lig isomer [2, 14]: 0%
conversion to 1,5-cz-Lig isomer [2, 14]: 0%
conversion to 1,4-cz-Lig isomer [2, 15]: 0%
conversion to 1,5-cz-Lig isomer [2, 15]: 1%
conversion to 1,4-cz-Lig isomer [2, 16]: 0%
conversion to 1,5-cz-Lig isomer [2, 16]: 1%
conversion to 1,4-cz-Lig isomer [2, 17]: 0%
conversion to 1,5-cz-Lig isomer [2, 17]: 90%
conversion to 1,4-cz-Lig isomer [2, 18]: 0%
conversion to 1,5-cz-Lig isomer [2, 18]: 88%
conversion to 1,4-cz-Lig isomer [2, 19]: 0%
conversion to 1,5-cz-Lig isomer [2, 19]: 93%
conversion to 1,4-cz-Lig isomer [2, 20]: 0%
conversion to 1,5-cz-Lig isomer [2, 20]: 89%
conversion to 1,4-cz-Lig isomer [2, 21]: 0%
conversion to 1,5-cz-Lig isomer [2, 21]: 57%
conversion to 1,4-cz-Lig isomer [2, 22]: 0%
conversion to 1,5-cz-Lig isomer [2, 22]: 15%
conversion to 1,4-cz-Lig isomer [2, 23]: 0%
conversion to 1,5-cz-Lig isomer [2, 23]: 6%
conversion to 1,4-cz-Lig isomer [2, 24]: 1%
conversion to 1,5-cz-Lig isomer [2, 24]: 6%
conversion to 1,4-cz-Lig isomer [2, 25]: 4%
conversion to 1,5-cz-Lig isomer [2, 25]: 8%
conversion to 1,4-cz-Lig isomer [2, 26]: 5%
conversion to 1,5-cz-Lig isomer [2, 26]: 10%
conversion to 1,4-cz-Lig isomer [2, 27]: 4%
conversion to 1,5-cz-Lig isomer [2, 27]: 11%
conversion to 1,4-cz-Lig isomer [2, 28]: 2%
conversion to 1,5-cz-Lig isomer [2, 28]: 12%
conversion to 1,4-cz-Lig isomer, Cs^I ([3]; A: 1 hour at 80° C.): 1%
conversion to 1,4-cz-Lig isomer, K^I ([3]; A: 1 hour at 80° C.): 1%
conversion to 1,4-cz-Lig isomer, Li^I ([3]; A: 1 hour at 80° C.): 0%
conversion to 1,4-cz-Lig isomer, Na^I ([3]; A: 1 hour at 80° C.): 0%
conversion to 1,4-cz-Lig isomer, Rb^I ([3]; A: 1 hour at 80° C.): 1%
conversion to 1,5-cz-Lig isomer, Cs^I ([3]; A: 1 hour at 80° C.): 1%
conversion to 1,5-cz-Lig isomer, K^I ([3]; A: 1 hour at 80° C.): 0%
conversion to 1,5-cz-Lig isomer, Li^I ([3]; A: 1 hour at 80° C.): 0%
conversion to 1,5-cz-Lig isomer, Na^I ([3]; A: 1 hour at 80° C.): 1%
conversion to 1,5-cz-Lig isomer, Rb^I ([3]; A: 1 hour at 80° C.): 1%
conversion to 1,4-cz-Lig isomer, Cs^I ([3]; B: 1 day at 80° C.): 10%
conversion to 1,4-cz-Lig isomer, K^I ([3]; B: 1 day at 80° C.): 10%
conversion to 1,4-cz-Lig isomer, Na^I ([3]; B: 1 day at 80° C.): 1%
conversion to 1,4-cz-Lig isomer, Rb^I ([3]; B: 1 day at 80° C.): 10%
conversion to 1,5-cz-Lig isomer, Cs^I ([3]; B: 1 day at 80° C.): 11%
conversion to 1,5-cz-Lig isomer, K^I ([3]; B: 1 day at 80° C.): 10%
conversion to 1,5-cz-Lig isomer, Na^I ([3]; B: 1 day at 80° C.): 9%
conversion to 1,5-cz-Lig isomer, Rb^I ([3]; B: 1 day at 80° C.): 10%
conversion to 1,4-cz-Lig isomer, Li^I [3, 29]: 0%
conversion to 1,5-cz-Lig isomer, Li^I [3, 29]: 2%
conversion to 1,5-cz-[Ln(Lig)], Ce^III ([4]; after 1 week at 80° C.): 0%
conversion to 1,5-cz-[Ln(Lig)], Ce^III ([4]; after 1 hour at 80° C.): 0%
conversion to 1,5-cz-[Ln(Lig)], Dy^III ([4]; after 1 week at 80° C.): 0%
conversion to 1,5-cz-[Ln(Lig)], Dy^III ([4]; after 1 hour at 80° C.): 0%
conversion to 1,5-cz-[Ln(Lig)], Er^III ([4]; after 1 week at 80° C.): 0%
conversion to 1,5-cz-[Ln(Lig)], Er^III ([4]; after 1 hour at 80° C.): 0%
conversion to 1,5-cz-[Ln(Lig)], Eu^III ([4]; after 1 week at 80° C.): 0%
conversion to 1,5-cz-[Ln(Lig)], Eu^III ([4]; after 1 hour at 80° C.): 0%
conversion to 1,5-cz-[Ln(Lig)], Gd^III ([4]; after 1 week at 80° C.): 0%
conversion to 1,5-cz-[Ln(Lig)], Gd^III ([4]; after 1 hour at 80° C.): 0%
conversion to 1,5-cz-[Ln(Lig)], Ho^III ([4]; after 1 week at 80° C.): 0%
conversion to 1,5-cz-[Ln(Lig)], Ho^III ([4]; after 1 hour at 80° C.): 0%
conversion to 1,5-cz-[Ln(Lig)], La^III ([4]; after 1 week at 80° C.): 0%
conversion to 1,5-cz-[Ln(Lig)], La^III ([4]; after 1 hour at 80° C.): 0%
conversion to 1,5-cz-[Ln(Lig)], Lu^III ([4]; after 1 week at 80° C.): 0%
conversion to 1,5-cz-[Ln(Lig)], Lu^III ([4]; after 1 hour at 80° C.): 0%
conversion to 1,5-cz-[Ln(Lig)], Nd^III ([4]; after 1 week at 80° C.): 0%
conversion to 1,5-cz-[Ln(Lig)], Nd^III ([4]; after 1 hour at 80° C.): 0%
conversion to 1,5-cz-[Ln(Lig)], Pr^III ([4]; after 1 week at 80° C.): 0%
conversion to 1,5-cz-[Ln(Lig)], Pr^III ([4]; after 1 hour at 80° C.): 0%
conversion to 1,5-cz-[Ln(Lig)], Sm^III ([4]; after 1 week at 80° C.): 0%
conversion to 1,5-cz-[Ln(Lig)], Sm^III ([4]; after 1 hour at 80° C.): 0%
conversion to 1,5-cz-[Ln(Lig)], Tb^III ([4]; after 1 week at 80° C.): 0%
conversion to 1,5-cz-[Ln(Lig)], Tb^III ([4]; after 1 hour at 80° C.): 0%
conversion to 1,5-cz-[Ln(Lig)], Tm^III ([4]; after 1 week at 80° C.): 0%
conversion to 1,5-cz-[Ln(Lig)], Tm^III ([4]; after 1 hour at 80° C.): 0%
conversion to 1,5-cz-[Ln(Lig)], Yb^III ([4]; after 1 week at 80° C.): 0%
conversion to 1,5-cz-[Ln(Lig)], Yb^III ([4]; after 1 hour at 80° C.): 0%
SMILES: C#CCNC(=O)CN1CCN(CC(=O)O)CCN(Cc2cc(-c3ccccc3)cc(CN=[N+]=[N-])n2)CCN(CC(=O)O)CC1 [TD425]
